# Test results: US20080214555A1 (priority 2007, published 2008)
# Key:
# [1] = system: patients with non-ST elevation acute coronary syndrome; experiment: MERLIN-TIMI 36: Seattle Angina Questionnaire scores at 4 months; assay type: in vivo, human; settings: ITT
# Excerpt: The MERLIN-TIMI 36 secondary efficacy endpoint (ITT) Seattle Angina Questionnaire scores at 4 months for anginal frequency scale are shown in Table 16 below, and scores for physical limitation scale are shown in Table 17 below.
# [2] = system: patients with non-ST elevation acute coronary syndrome; experiment: MERLIN-TIMI 36: arrhythmias on 7 day continuous ECG (Holter) recording; assay type: in vivo, human
# Method: Continuous ECG (Holter) recording was performed for the first 7 days after randomization. Because of the known prolongation of the QT interval with ranolazine, analyses of a prespecified set of arrhythmias were a major objective of the trial. All arrhythmias were evaluated in the TIMI ECG Core Laboratory by cardiologists blinded to treatment and outcomes.
# Continuous ECG (cECG or Holter) recording was performed for the first 7 days after randomization. Prespecified arrhythmia analyses were evaluated by a core laboratory blinded to treatment and outcomes.
# [3] = background statement; cited from earlier work
# [4] = Example 8 table, first 7 days, n = 3162
# [5] = Table 24, all patients dosed, n = 3268
# [6] = incidence of ventricular tachyarrhythmias table
smiles,measurement,setting,value
"COc1ccccc1OCC(O)CN1CCN(CC(=O)Nc2c(C)cccc2C)CC1 (racemic) [Ranolazine, (±)-N-(2,6-dimethylphenyl)-4-[2-hydroxy-3-(2-methoxyphenoxy)-propyl]-1-piperazineacetamide]","Seattle Angina Questionnaire physical limitation scale score, 25th percentile-75th percentile",[1]; N 2339,55.6-94.4
same,"Seattle Angina Questionnaire physical limitation scale score, Mean (SEM)",[1]; N 2339,72.8 (0.5)
same,"Seattle Angina Questionnaire physical limitation scale score, Median",[1]; N 2339,77.8
same,"Seattle Angina Questionnaire physical limitation scale score, Min-Max",[1]; N 2339,0-100
same,"Seattle Angina Questionnaire anginal frequency scale score, 25th percentile-75th percentile",[1]; N 2558,80-100
same,"Seattle Angina Questionnaire anginal frequency scale score, Mean (SEM)",[1]; N 2558,84.3 (0.4)
same,"Seattle Angina Questionnaire anginal frequency scale score, Median",[1]; N 2558,100
same,"Seattle Angina Questionnaire anginal frequency scale score, Min-Max",[1]; N 2558,0-100
same,"Episode of ventricular arrhythmia lasting >=8 beats, %",[2]; Example 8,5.5%
same,"Episode of ventricular arrhythmia lasting >=8 beats, number of patients",[2]; Example 8,175
same,"New-onset atrial fibrillation, %",[2]; Example 8,1.7%
same,"New-onset atrial fibrillation, number of patients",[2]; Example 8,55
same,"Pauses >=3 seconds, %",[2]; Example 8,3.1%
same,"Pauses >=3 seconds, number of patients",[2]; Example 8,97
same,"Supraventricular tachycardia, %",[2]; Example 8,43.2%
same,"Supraventricular tachycardia, number of patients",[2]; Example 8,1413
same,"Any ventricular tachycardia >= 3 beats, %",[2]; [4],(29.0) %
same,"Any ventricular tachycardia >= 3 beats, number",[2]; [4],948
same,"Brady, Complete heart block, or Pause >= 2.5 sec, %",[2]; [4],(38.5) %
same,"Brady, Complete heart block, or Pause >= 2.5 sec, number",[2]; [4],1257
same,"Bradycardia < 45 bpm for at least 4 beats, %",[2]; [4],(37.8) %
same,"Bradycardia < 45 bpm for at least 4 beats, number",[2]; [4],1236
same,"Clinically Significant Arrhythmia on Holter, %",[2]; [4],(71.3) %
same,"Clinically Significant Arrhythmia on Holter, number",[2]; [4],2330
same,"Pause >3 secs, %",[2]; [4],(3.1) %
same,"Pause >3 secs, number",[2]; [4],97
same,"Pause >3 secs: AV node block, %",[2]; [4],(1.0) %
same,"Pause >3 secs: AV node block, number",[2]; [4],31
same,"Pause >3 secs: Other, %",[2]; [4],(0.1) %
same,"Pause >3 secs: Other, number",[2]; [4],2
same,"Pause >3 secs: Sinoatrial node block, %",[2]; [4],(2.0) %
same,"Pause >3 secs: Sinoatrial node block, number",[2]; [4],64
same,"Polymorphic VT >= 8 beats, %",[2]; [4],(1.2) %
same,"Polymorphic VT >= 8 beats, number",[2]; [4],38
same,"Sustained VT (>=30 secs), %",[2]; [4],(0.44) %
same,"Sustained VT (>=30 secs), number",[2]; [4],14
same,"Sustained VT (>=30 secs): Monomorphic, %",[2]; [4],(0.12) %
same,"Sustained VT (>=30 secs): Monomorphic, number",[2]; [4],4
same,"Sustained VT (>=30 secs): Polymorphic, %",[2]; [4],(0.32) %
same,"Sustained VT (>=30 secs): Polymorphic, number",[2]; [4],10
same,"Triplets, %",[2]; [4],(46.9) %
same,"Triplets, number",[2]; [4],1532
same,"VT >= 4 beats, %",[2]; [4],(23.6) %
same,"VT >= 4 beats, number",[2]; [4],772
same,"VT >= 8 beats (<30 secs), %",[2]; [4],(5.5) %
same,"VT >= 8 beats (<30 secs), number",[2]; [4],175
same,"Episode of ventricular tachycardia lasting >8 beats, %",[2]; Example 9,5.3%
same,"Episode of ventricular tachycardia lasting >8 beats, number of patients",[2]; Example 9,166
same,"New-onset atrial fibrillation, %",[2]; Example 9,1.7%
same,"New-onset atrial fibrillation, number of patients",[2]; Example 9,55
same,"Pauses >3 seconds, %",[2]; Example 9,3.1%
same,"Pauses >3 seconds, number of patients",[2]; Example 9,97
same,"Supraventricular tachycardia, %",[2]; Example 9,44.7%
same,"Supraventricular tachycardia, number of patients",[2]; Example 9,1413
same,Incidence of ventricular tachycardia,[2]; No. of beats ≧8,5.3%
same,Incidence of ventricular tachycardia,[2]; No. of beats ≧10,3.5%
same,Incidence of ventricular tachycardia,[2]; No. of beats ≧15,1.3%
same,Incidence of ventricular tachycardia,[2]; No. of beats ≧20,0.9%
same,"Any Clinically Significant Arrhythmia during 7 day Holter, %",[2]; [5],(71.3%)
same,"Any Clinically Significant Arrhythmia during 7 day Holter, number",[2]; [5],2330
same,"Bradycardic episode during 7 day Holter, %",[2]; [5],(38.5%)
same,"Bradycardic episode during 7 day Holter, number",[2]; [5],1257
same,"New onset atrial fibrillation during 7 day Holter, %",[2]; [5],(1.7%)
same,"New onset atrial fibrillation during 7 day Holter, number",[2]; [5],55
same,"Supraventricular tachycardia (any SVT >= 120 bpm) during 7 day Holter, %",[2]; [5],(43.2%)
same,"Supraventricular tachycardia (any SVT >= 120 bpm) during 7 day Holter, number",[2]; [5],1413
same,"Ventricular tachycardia (any VT >= 100 bpm >= 3 beats) during 7 day Holter, %",[2]; [5],(29.0%)
same,"Ventricular tachycardia (any VT >= 100 bpm >= 3 beats) during 7 day Holter, number",[2]; [5],948
same,"Polymorphic VT >= 8 beats on cECG, %",[2]; [6],(1.2) %
same,"Sustained VT (>=30 sec) on cECG, %",[2]; [6],(0.44) %
same,"VT ≧ 3 beats (≧100 b/m) on cECG, %",[2]; [6],(52.1) %
same,"VT ≧ 4 beats (≧100 b/m) on cECG, %",[2]; [6],(20.9) %
same,"VT ≧ 8 beats (<30 sec) on cECG, %",[2]; [6],(5.3) %
same,"Polymorphic VT >= 8 beats on cECG, Δ n",[2]; placebo vs ranolazine,10
same,"Sustained VT (>=30 sec) on cECG, Δ n",[2]; placebo vs ranolazine,0
same,"VT ≧ 3 beats (≧100 b/m) on cECG, Δ n",[2]; placebo vs ranolazine,347
same,"VT ≧ 4 beats (≧100 b/m) on cECG, Δ n",[2]; placebo vs ranolazine,279
same,"VT ≧ 8 beats (<30 sec) on cECG, Δ n",[2]; placebo vs ranolazine,99
same,"Polymorphic VT >= 8 beats on cECG, Δ (%)",[2]; ranolazine vs placebo,(−21) %
same,"VT ≧ 3 beats (≧100 b/m) on cECG, Δ (%)",[2]; ranolazine vs placebo,(−17) %
same,"VT ≧ 4 beats (≧100 b/m) on cECG, Δ (%)",[2]; ranolazine vs placebo,(−30) %
same,"VT ≧ 8 beats (<30 sec) on cECG, Δ (%)",[2]; ranolazine vs placebo,(−37) %
same,Incidence of ventricular tachycardia of >8 beats,[2]; subgroup baseline QTc >450 msec,5.6%
same,Incidence of ventricular tachycardia of >8 beats,[2]; subgroup baseline QTc ≦450 msec,5.2%
same,Incidence of ventricular tachycardia of >8 beats,[2]; subgroup ejection fraction <40%,8.8%
same,Incidence of ventricular tachycardia of >8 beats,[2]; subgroup ejection fraction ≧40%,5.3%
same,Prolonging the QTc interval,[3],2 to 5 ms
